Test results: ChEMBL document CHEMBL1201862, “PubChem BioAssay data set” (2004)
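Step 1: Grow cells in 96-well plates. Step 2: Expose to compound for 48 hours at 5 concentrations. Step 3: Interpolate endpoints linearly; if unreached, use highest concentration. GI50 is the concentration that inhibits growth by half.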 Calls of active or inactive are those of the source. Rule as the data show it: active = GI50 up to about 1.1 µM and inactive = higher.

Legend:
Assay in all cases: NCI-60 cell line screen, 48 h
[1] = tested on: SK-MEL-2
[2] = tested on: PC-3
[3] = tested on: HOP-62
[4] = tested on: MCF7
[5] = tested on: ACHN
[6] = tested on: UACC-257
[7] = tested on: OVCAR-5
[8] = tested on: LOX IMVI
[9] = tested on: MDA-N
[10] = tested on: KM12
[11] = tested on: Malme-3M
[12] = tested on: COLO 205
[13] = tested on: MDA-MB-231
[14] = tested on: K562
[15] = tested on: SR

Measured: GI50

C1=C2C3=[N+](CCCC3)CC2Cc2ccsc21 (stereo not drawn)
inactive: [1] > 100 µM | [2] 45.1 µM | [3] > 100 µM | [4] > 100 µM | [5] > 100 µM | [6] 33.9 µM | [7] > 100 µM | [8] > 100 µM | [9] > 100 µM | [10] 42.4 µM | [11] 63 µM | [12] > 100 µM | [13] > 100 µM | [14] > 100 µM

Cc1c(C#N)c(=N)oc2ccccc12
inactive: [1] 84.1 µM | [2] > 100 µM | [3] 88.9 µM | [4] > 100 µM | [5] > 100 µM | [6] > 100 µM | [7] > 100 µM | [8] > 100 µM | [9] > 100 µM | [10] > 100 µM | [11] > 100 µM | [12] > 100 µM | [13] > 100 µM | [14] > 100 µM

N#Cc1nnn(C2CCCCC2)c1O
inactive: [1] > 100 µM | [2] > 100 µM | [3] > 100 µM | [4] > 100 µM | [5] > 100 µM | [6] > 100 µM | [7] > 100 µM | [8] > 100 µM | [9] > 100 µM | [10] > 100 µM | [11] > 100 µM | [12] > 100 µM | [13] > 100 µM

CC(=O)/C(=C\NC(N)=S)C(=O)Nc1ccccc1C
inactive: [1] > 100 µM | [2] > 100 µM | [3] > 100 µM | [4] > 100 µM | [5] > 100 µM | [6] > 100 µM | [7] > 100 µM | [8] > 100 µM | [9] > 100 µM | [10] > 100 µM | [15] > 100 µM | [12] > 100 µM | [13] > 100 µM | [14] > 100 µM

COC(=O)[C@H](Cc1c[nH]c2ccccc12)NP(=O)(O)OC[C@H]1O[C@@H](n2cc(C)c(=O)[nH]c2=O)C[C@@H]1N=[N+]=[N-]
inactive: [1] > 100 µM | [2] > 100 µM | [3] > 100 µM | [4] > 100 µM | [6] > 100 µM | [7] > 100 µM | [8] > 100 µM | [9] > 100 µM | [10] > 100 µM | [11] > 100 µM | [12] > 100 µM | [13] > 100 µM | [14] > 100 µM

O=C1Nc2ccccc2/C1=N/Nc1ccccc1[N+](=O)[O-]
inactive: [1] > 100 µM | [2] 57 µM | [3] 19.3 µM | [4] > 100 µM | [5] 11.6 µM | [6] 56.1 µM | [7] 38.3 µM | [8] 36.4 µM | [9] > 100 µM | [10] 33.8 µM | [15] 6.62 µM | [12] 69.7 µM | [13] 28.4 µM | [14] 66.5 µM

COc1cc(C(c2c(O)c3ccccc3oc2=O)c2c(O)c3ccccc3oc2=O)ccc1O
inactive: [1] 25.2 µM | [2] 33.7 µM | [3] 44.4 µM | [4] 19.3 µM | [5] 22.6 µM | [6] 19.1 µM | [7] 18.7 µM | [8] 24.6 µM | [9] 19.9 µM | [10] 32.7 µM | [11] 19 µM | [12] 17.2 µM | [13] 21.1 µM | [14] 39.4 µM

COc1ccc(/C=C2\CC3C4CC=C5C[C@@H](N6CCCC6)CC[C@]5(C)C4CC[C@]3(C)[C@H]2O)cc1OC (stereo partly drawn)
inactive: [1] 7.43 µM | [2] 6.3 µM | [3] 5.48 µM | [4] 7.55 µM | [5] 8.85 µM | [6] 8.13 µM | [7] 10.2 µM | [8] 8.97 µM | [9] 7.55 µM | [10] 6.56 µM | [11] 9.2 µM | [12] 8.38 µM | [13] 7.85 µM | [14] 8.09 µM

Cc1ccccc1-n1c(=O)nc2n(-c3ccc(C(C)(C)C)cc3)c3ccccc3cc-2c1=O
inactive: [1] 16.7 µM | [2] 19.8 µM | [3] 20.2 µM | [4] 22.9 µM | [5] 32.5 µM | [6] 17.2 µM | [7] 25.9 µM | [8] 15.6 µM | [9] 22.6 µM | [10] 15.3 µM | [15] 30.1 µM | [12] 18.5 µM | [13] 19 µM | [14] 37.8 µM

NC(=O)C(=O)C(c1ccccc1)S(=O)(=O)Cc1ccccc1 (stereo not drawn)
inactive: [1] > 100 µM | [2] > 100 µM | [3] > 100 µM | [4] > 100 µM | [5] > 100 µM | [6] > 100 µM | [7] > 100 µM | [8] > 100 µM | [9] > 100 µM | [10] > 100 µM | [15] > 100 µM | [12] > 100 µM | [13] > 100 µM | [14] > 100 µM
